Results on two molecules are retold here after patent US9364413B2, “Method for anti-aging treatment by surfactin in cosmetics via enhancing sirtuin” (UMO International Co., Ltd., priority 2014, dated 2016).

The subject of one data set is collagen. Description: Sircol soluble collagen assay. The class given is cell-based, mouse. To be noted: 24 hours. How it is done:
Sircol™ soluble collagen assay kit was used for analysis the total concentration of collagen in the culture media and the general method is described as follows:
Place 0.1 ml of the test samples and the standards at different concentrations in separate 1.5 mL centrifuge tubes. Add 1 mL of dye reagent and vortex for 35 minutes, followed by centrifugation at 12000 rpm for 10 minutes and remove the supernatant. Carefully remove the residue water at the side of the tube to avoid contact with the precipitate. Add 1 mL of Alkali reagent to dissolve the precipitate and transfer 0.2 mL to a 96-well pate after the color has developed and measure absorbance at 570 nm using an ELISA reader.

For a further data set, the system named is sirtuin 1 gene. As to the kind of experiment: mRNA expression of the long-lived gene sirtuin 1 by real-time quantitative PCR. It counts as cell-based. The settings on record: mouse embryo fibroblasts. An excerpt: Total RNA was extracted from human skin fibroblasts and mouse embryo fibroblasts using TRIzol reagent (Invitrogen, USA), analyzed by RNA gel electrophoresis and subjected to RT-PCR for amplification of human skin fibroblasts sirtuin 1 and sirtuin 3 and mouse embryo fibroblasts sirtuin 1. GeneBan was used to identify well known sequences of sirtuins and GCG program was utilized to search for sequences with high similarity. A primer set was designed for polymerase chain reaction (PCR), followed by 1.2% agarose gel electrophoresis of a small portion of the reaction product to confirm the expected product has been amplified. Once confirmed, the remaining product was subjected to low-melting point agar gel electrophoresis, the product was excised from the gel and the specific size of DNA fragment was purified by gel extraction for cloning. The purified DNA fragment was ligated with the cloning vector pGEM-T-easy vector (pGEM-T-easy cloning kit, Promega, USA) before transformed into the competent cells. Finally, after small scale culture, cloning vector was extracted for sequencing, and the sequence data was compared using the BLAST program of NCBI. Part of the human skin fibroblast sirtuin 1 and sirtuin 3 and mouse embryo fibroblasts sirtuin 1 were correctly cloned by the abovementioned cloning procedures and the selected clones were transformed into competent cells again for extraction of plasmid with high purity for future experiments.
RNA is easily degraded in natural environment by RNase and thus all tools used must be autoclaved and dried in an oven prior to conducting experiments and wear gloves and masks during the procedures. Quickly add 800 μL TRIzol™ reagent to the culture dish of the experimental group and transfer the washed off cells to a sterile tube. Add chloroform to the tube in the volume of ⅕ of the total volume of TRIzol™ reagent and shake vigorously for 30 seconds. After incubation at room temperature for 15 minutes, centrifuge at 13200 rpm for 15 minutes at 4° C. and transfer the supernatant to a new 1.5 mL eppendorf. RNA is present in the aqueous phase of the supernatant. Transfer the supernatant to another clean 1.5 mL eppendorf and add Isopropanol in the volume of ½ of TRIzol™ reagent and high salt solution (1.2 M Sodium Chloride and 0.8 M Sodium citrate), mix well and incubate at −20° C. for 30 minutes, followed by centrifugation at 13200 rpm for 15 minutes at 4° C. to precipitate RNA; remove the supernatant carefully and add 800 μL of 100% absolute ethanol to wash and centrifuge at 13200 rpm for 10 minutes at 4° C. before washing with 100% ethanol. Carefully remove the supernatant and dry the RNA precipitate at 55° C. for 5 minutes. Dissolve the RNA precipitate in 15 μL DEPC water and incubate at 55° C. for 10 minutes and store at −80° C. freezer for future use.
Place 5 μg of total RNA in a 200 μL eppendorf and adjust the volume to 13 μL with DEPC water, add 1 μL of oligo(dT) 18, 10 mM dNTPs and incubate on ice. Add 4 μl of 5×AMV buffer and 1 μl of AMV (40 units/μL) and mix well. […]
The fluorescent dye SYBR green I can be embedded in the groove of double-stranded DNA and generate fluorescence when excited by a halogen light and its intensity can then be measured. When SYBR green I is not embedded in the groove of double-stranded DNA, its fluorescence background value is very low; and when it starts to integrate into the amplified target gene sequence, the fluorescence signal of SYBR green I will also be increased accordingly. […]

Data set [1] has as its system mouse embryo fibroblasts. As to the kind of experiment: cell proliferation of mouse embryo fibroblasts. The class given is cell-based. To be noted: 48 hours.
For data set [2], the system named is mouse embryo fibroblasts. As to the kind of experiment: anti-photoaging: cell survival after UV-A irradiation (MTT method). The settings on record: for cell survival rate after UV irradiation: 24 hours. It counts as cell-based. How it is done: After incubation for 24 hours, cell survival rates were measured by the MTT method.
Data set [3] deals with mouse embryo fibroblasts. As to the kind of experiment: anti-oxidation: cell survival after hydrogen peroxide treatment (MTT method). The class given is cell-based. How it is done: Following subculture of the mouse embryo fibroblasts and incubation for 4 hours for attachment, hydrogen peroxide was used to treat the cells as the source of oxidation. The cells were treated with 100, 150, 200 and […] of hydrogen peroxide before addition of 25, 50, 75 and 100 μM of surfactin for another 24 hours. Cell survival rate was measured by the MTT method.
On the technique in general: Tetrazolium assays rely on reduction of a dye to a coloured formazan, in cell work by metabolically active cells.

A short description of data set [4]: skin penetration of FITC-labeled dexamethasone in mice. It counts as in vivo. To be noted: 0.2, 0.5, 1 and 2% surfactin, 1 hour, back of mice, fluorescence intensity. How it is done:
(§1) Before the experiment, the back of the mice was shaved. Mice aged 6-8 weeks were anesthetized by intraperitoneal injection using (Zoletil) and lay the animal flat before shaving the back with a electric razor and remove the remaining hair with hair removal cream. Place the animals in the cages with a warming light and provide water in each cage. Two groups are include in the experiment: for the control group, 100 μl of PBS (pH=7.4) was mixed with fluorescein isothiocyanate (FITC)-labeled HA or dexamethasone before added to 1 cm2 sterile cotton and affixed to the back of the mice; for the experimental group, FITC-labeled HA or dexamethasone was mixed with 0, 0.2, 0.5, 1, 2 and 5% surfactin for 1 hour.
(§2) At the end of 1 hour treatment, sacrificed the mice with CO2 asphyxiation, clean up the drug residue on the skin with ethanol and cut the skin on the back and embedded in Optimum cutting temperature compound (O.C.T) (SAKURA®, Japen) for cryosection (CM-2000, Leica, Germany).

The nature of data set [5]: skin absorption of FITC-labeled hyaluronic acid in mice. The class given is in vivo. The settings on record: 1 hour, back of mice. How it is done:
as §1, §2

Data set [6] in a line: skin absorption of FITC-labeled poly-γ-glutamic acid in mice. It counts as in vivo. To be noted: 1, 2, 5, 10, 15 and 20% surfactin, 1 hour, back of mice, fluorescence intensity.
The nature of data set [7]: percutaneous penetration of gold nanoparticles in mice. It counts as in vivo. To be noted: 12.5 ppm surfactin, gold nanoparticles 2 nm, mice (BALB/c). An excerpt:
We applied the mix of gold nanoparticles and surfactin to the skin of mice for a certain period of time and collected the skin for cryosection. Because gold nanoparticles is self-luminous, optical microscope can be used to observe the content of fluorescence of gold nanoparticles in epidermis and dermis of the skin. The results indicated skin care paste obtained by conventional methods is not helpful for gold nanoparticle absorption by the skin due to its internal gel-mass like or gel-bundle like structure and thus gold nanoparticles were only found in the epidermis.

A short description of data set [8]: emulsifying power in diesel, emulsification index (E24). It counts as physicochemical. How it is done: After incubation at room temperature for 24 hours, emulsification index (E24) was measured.
The emulsifying power is one of the important indicator of surfactants, and present invention utilized the method published by Cooper et. al to measure the emulsification index of surfactants in diesel. Different concentrations of crude surfactin was dissolved in buffer solutions at pH 6.4, 7.4 and 8.4, and 2 ml of the dissolved mixture was added to a test tube containing 3 ml of diesel, vortex for 2 minutes and incubate at room temperature for 24 hours before measurement. The ration of height of the emulsifying phase and the total height of the solution multiplied by 100% will give the emulsification index of the test solution. The emulsifying power of oil products is represented as the emulsification index (E24), wherein the equation of E24 is shown as follows: E24(%)=(height of the emulsifying phase/total height of solution)×100%.

A short description of data set [9]: foaming power, foam maximum density (MD). It counts as physicochemical. To be noted: buffer pH 7.4, more than 150 μg of surfactin, surfactin produced by Bacillus subtilis TH. How it is done: Measure the height of the foam and calculate the foam maximum density (MD).
Surfactants are […] and present invention examined the foaming property of crude surfactin. The method developed by Razafindralambo et. al was referenced and different concentrations of crude surfactin was dissolved in a buffer solution with a pH at 7.4, vortex for 2 minutes and followed by incubation for 1 hour. The height of the foam was then measured and the foaming power is expressed as foam maximum density (MD) which is obtained by dividing the […].

The nature of data set [10]: turbidity of diluted shampoo and corecervate formation. The class given is physicochemical. How it is done:
(1) Adjust the relative concentration of the shampoo to 0.01-1.0
Relative concentration=shampoo liquid (g)/(shampoo liquid (g)+water (g))
(2) Measure the transmittance rate (%, temperature at 40° C.) of the […] solution (1) and the turbidity is represented as =100−transmittance rate (%)

The conditions of data set [11]: Razafindralambo et al.; cited from earlier work.

Peptide text beside a SMILES is read from it.

For the molecule “palmitoyl pentapeptide-3 [reference compound]”, in the data set on collagen, the “collagen effect compared with surfactin” value is “not as good as surfactin”. Moreover, the “collagen content in the cells” value in the data set on collagen (Palmitoyl pentapeptide-3 3, 5, 8 and 10 μM) is “can also increase collagen content”.

Take `CC(C)CCCCCCCCC[C@@H]1CC(=O)N[C@@H](CCC(=O)O)C(=O)N[C@@H](CC(C)C)C(=O)N[C@H](CC(C)C)C(=O)N[C@@H](C(C)C)C(=O)N[C@@H](CC(=O)O)C(=O)N[C@H](CC(C)C)C(=O)N[C@@H](CC(C)C)C(=O)O1` [surfactin] (HELM PEPTIDE1{E.L.[dL].V.D.[dL].L}|CHEM1{[CC(C)CCCCCCCCC[C@H](CC(=O)[*:1])O[*:2]]}$PEPTIDE1,CHEM1,1:R1-1:R1|PEPTIDE1,CHEM1,7:R2-1:R2$$$V2.0): the “concentration with the best effect in enhancement of sirtuin 1 expression” value in the data set with sirtuin 1 gene (0-100 μM tested, 6-48 hours) was found to be 50 µM. Besides, the “expression of the sirtuin 1 gene” value in the data set on sirtuin 1 gene (6 hours, 50 μM and 75 μM surfactin) is on record as “enhance expression of the sirtuin 1 gene”; in the data set on sirtuin 1 gene (12 hours, 25 μM surfactin) it was “enhancement of expression of the sirtuin 1 gene”; in the data set with sirtuin 1 gene (36 hours, 50 μM and 100 μM surfactin), “enhancement of expression of the sirtuin 1 gene”; in the data set on sirtuin 1 gene (48 hours, 50 μM surfactin), “enhancement of expression of the sirtuin 1 gene”. The “mouse embryo fibroblast proliferation” value in the data set with mouse embryo fibroblasts [1] (0, 25, 50, 75 and 100 μM) was “can enhance mouse embryo fibroblast proliferation”. Also, the “concentration with the best effect in inducing cell proliferation” value in the data set with mouse embryo fibroblasts [1] (followed by 50 μM) came to 75 µM. In addition, in the data set on mouse embryo fibroblasts [1] (resveratrol 0-30 μM, Palmitoyl pentapeptide-3 0-10 μM), the “cell proliferation compared with resveratrol and Palmitoyl pentapeptide-3” value is recorded as “better effect in inducing cell proliferation”. Also, the “cell survival rate after UV irradiation” value with mouse embryo fibroblasts [2] (UV 10 J/cm^2, 25, 50, 75, 100 and 125 μM surfactin) is given as “increase cell survival rate”; with mouse embryo fibroblasts [2] (UV 15 J/cm^2, 25, 50, 75, 100 and 125 μM surfactin), “increase cell survival rate”. Besides, the “concentration with the best protection after UV irradiation” value in the data set on mouse embryo fibroblasts [2] (UV 10 J/cm^2, 24 hours) came out at 75 µM; in the data set with mouse embryo fibroblasts [2] (UV 15 J/cm^2, 24 hours) it was 50 µM. In addition, the “protective effect against hydrogen peroxide” value in the data set on mouse embryo fibroblasts [3] (25, 50 and 75 μM surfactin) is “good protective effect”. Also, the “survival rate of mouse embryo fibroblasts treated with hydrogen peroxide” value in the data set with mouse embryo fibroblasts [3] (hydrogen peroxide 100-250 μM, surfactin 24 hours, MTT) is on record as “can increase the survival rate”. Further, the “collagen proliferation in mouse embryo fibroblasts” value with collagen (25, 50, 75 and 100 μM, compared with PBS control) is given as “great effects in increasing collagen proliferation”. Further, the “concentration with the best result in increasing collagen” value in the data set with collagen stood at 100 µM. Moreover, the “skin penetration of dexamethasone” value in [4] is listed as “can enhance skin penetration of dexamethasone”. The “hyaluronic acid (HA) absorption by the skin” value in data set [5] (0.2-5% surfactin, fluorescence intensity) is on record as “can increase hyaluronic acid (HA) absorption by the skin”. Also, the “surfactin concentration with the best effect on enhancing skin absorption of HA” value in data set [5] worked out at 1%. In addition, in [6], the “skin absorption of γ-GPA” value is listed as “can all increase skin absorption of γ-GPA”. Besides, the “percutaneous absorption of gold nanoparticles” value in [7] is “significantly enhance the percutaneous absorption of gold nanoparticles”. Also, the “pH of the best emulsifying power” value in [8] (pH 6.4, 7.4 and 8.4 tested, E24 after 24 hours) stood at 7.4. In data set [8] (pH=7.4), the “concentration of the best emulsifying power” value was 160 μg/m. In addition, the “foam maximum density (MD), minimum” value in data set [9] is given as 1.23. The “turbidity of the shampoo” value in [10] (compared with sodium laureth sulfate, 40° C., relative concentration 0.01-1.0) is on record as “can further reduce the turbidity of the shampoo”. For the same molecule, the corecervate formation result in data set [10] (shampoo during flushing / dilution) is reported as “corecervate will occur at low concentrations”. Besides, the “MD value of surfactin” value in data set [11] is ≥ 0.10.
